Laboratory results taken from publication PMC3837394 (Advances in Protein Chemistry and Structural Biology, 2012).

What was measured:
Experiment in all cases: colorimetric ELISA-like DNMT activity assay
Format in all cases: biochemical
[1] = target: T1, full-length human DNMT1 (Homo sapiens, UniProt P26358); conditions: read-out: % inhibition at 100 μM
[2] = target: murine Dnmt3a (Mus musculus, UniProt O88508)
[3] = target: T1, full-length human DNMT1

T1 sequence (P26358 whole entry): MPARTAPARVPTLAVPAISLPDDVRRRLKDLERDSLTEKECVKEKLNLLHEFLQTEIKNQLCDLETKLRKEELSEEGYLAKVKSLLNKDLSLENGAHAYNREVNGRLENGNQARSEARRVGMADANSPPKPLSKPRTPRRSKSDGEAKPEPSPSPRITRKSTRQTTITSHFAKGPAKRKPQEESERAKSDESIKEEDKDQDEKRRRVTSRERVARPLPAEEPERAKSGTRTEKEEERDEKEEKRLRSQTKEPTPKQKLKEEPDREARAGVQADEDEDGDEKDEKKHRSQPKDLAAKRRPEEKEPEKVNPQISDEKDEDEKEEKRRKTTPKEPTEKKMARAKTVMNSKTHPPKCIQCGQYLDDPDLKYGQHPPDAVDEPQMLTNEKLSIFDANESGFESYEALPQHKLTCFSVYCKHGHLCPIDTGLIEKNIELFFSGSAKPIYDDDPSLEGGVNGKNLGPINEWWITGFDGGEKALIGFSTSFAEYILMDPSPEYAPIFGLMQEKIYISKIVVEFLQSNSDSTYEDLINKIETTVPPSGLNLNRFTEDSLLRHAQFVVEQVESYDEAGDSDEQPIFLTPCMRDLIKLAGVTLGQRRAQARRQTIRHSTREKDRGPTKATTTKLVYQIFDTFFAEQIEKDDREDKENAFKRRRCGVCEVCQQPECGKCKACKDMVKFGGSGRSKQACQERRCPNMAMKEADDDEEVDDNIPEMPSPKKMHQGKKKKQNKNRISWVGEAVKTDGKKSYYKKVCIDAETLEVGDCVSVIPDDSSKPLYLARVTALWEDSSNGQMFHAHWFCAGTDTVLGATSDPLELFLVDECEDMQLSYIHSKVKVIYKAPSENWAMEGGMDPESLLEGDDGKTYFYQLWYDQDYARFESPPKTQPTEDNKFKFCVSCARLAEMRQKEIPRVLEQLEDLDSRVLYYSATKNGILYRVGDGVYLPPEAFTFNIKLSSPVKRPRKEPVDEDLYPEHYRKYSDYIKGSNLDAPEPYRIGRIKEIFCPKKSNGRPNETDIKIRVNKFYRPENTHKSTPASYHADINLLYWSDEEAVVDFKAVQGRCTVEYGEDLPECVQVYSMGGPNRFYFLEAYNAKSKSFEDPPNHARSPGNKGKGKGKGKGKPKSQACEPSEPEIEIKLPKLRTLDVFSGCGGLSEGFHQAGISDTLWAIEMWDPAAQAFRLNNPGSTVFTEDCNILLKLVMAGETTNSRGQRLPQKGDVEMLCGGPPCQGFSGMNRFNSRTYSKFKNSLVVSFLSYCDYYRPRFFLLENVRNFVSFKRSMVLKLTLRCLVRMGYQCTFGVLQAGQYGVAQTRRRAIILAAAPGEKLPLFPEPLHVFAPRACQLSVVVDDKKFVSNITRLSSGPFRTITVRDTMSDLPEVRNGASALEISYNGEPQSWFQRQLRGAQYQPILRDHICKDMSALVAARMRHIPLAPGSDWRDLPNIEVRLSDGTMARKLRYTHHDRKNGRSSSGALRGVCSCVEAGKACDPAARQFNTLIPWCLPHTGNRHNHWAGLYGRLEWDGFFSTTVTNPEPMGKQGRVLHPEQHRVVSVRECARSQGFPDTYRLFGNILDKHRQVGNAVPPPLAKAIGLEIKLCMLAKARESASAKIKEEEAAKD

| inhibition at 100 µM [1] | IC50 [2] | IC50 [3] | SMILES |
| --- | --- | --- | --- |
| 11% | – | – | O=C(O)[C@H](Cc1c[nH]c2ccccc12)N1C(=O)c2ccccc2C1=O [RG108] |
| – | 1400 nM | 680 nM | O=C(O)C1=CC(=C(c2ccc(O)c(C(=O)O)c2)c2ccc(O)c(C(=O)O)c2)C=CC1=O [aurintricarboxylic acid] |
| – | – | 700 nM | O=C(O[C@@H]1Cc2c(O)cc(O)cc2O[C@@H]1c1cc(O)c(O)c(O)c1)c1cc(O)c(O)c(O)c1 [EGCG] |
